Several values for one entry are separate records, joined by “and”; a condition that tells them apart may be missing. Equal entries are not always repeated.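 Protocol summary: plate cells (96-well), add compound at 5 concentrations, incubate 48 h, interpolate endpoints linearly. The concentration for 50% growth inhibition is given as GI50. TGI: concentration producing complete growth inhibition.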
Experiments:
Experiment in all cases: NCI anticancer screen, dose series, 48 h
[1] = test system: ACHN renal
[2] = test system: COLO 205 colon
[3] = test system: HCC-2998 colon
[4] = test system: HCT-15 colon
[5] = test system: HS 578T breast
[6] = test system: LOX IMVI melanoma
[7] = test system: MDA-MB-435
[8] = test system: MOLT-4 leukemia
[9] = test system: NCI/ADR-RES ovarian
[10] = test system: SR leukemia

| SMILES | GI50 [1] | TGI [1] [µM] | GI50 [2] [µM] | TGI [2] [µM] | GI50 [3] | TGI [3] | GI50 [4] [µM] | TGI [4] | GI50 [5] [µM] | TGI [5] [µM] | GI50 [6] | TGI [6] [µM] | GI50 [7] | TGI [7] | GI50 [8] [µM] | TGI [8] | GI50 [9] | TGI [9] [µM] | GI50 [10] | TGI [10] [µM] |
| --- | --- | --- | --- | --- | --- | --- | --- | --- | --- | --- | --- | --- | --- | --- | --- | --- | --- | --- | --- | --- |
| C#Cc1cccc(NC(=O)Nc2ccccc2NC(=O)CCl)c1 | 14.5 µM | 30.6 | 29 | > 82.5 | 15.3 µM | 29.8 µM | 15.1 | 41.6 µM | 17.1 | 56.1 | 13.3 µM | 25.6 | 15 µM | 31.5 µM | 25.6 | > 82.5 µM | 23.4 µM | 75.5 | 23.8 µM | > 82.5 |
| O=C(Nc1ccc(Cl)c(Cl)c1)Nc1ccc(Cl)c([N+](=O)[O-])c1 | 0.8 µM | 3.06 | 1.12 | 4.9 | 1.22 µM | 4.58 µM | 0.845 | 3.56 µM | 3.65 | 16.1 | 1.03 µM | 3.81 | 1.16 µM | 4.9 µM | 0.925 | > 25 µM | 1.02 µM | 6.09 | 2.58 µM | > 25 |
| COc1ccc(C(=O)CC2(O)C(=O)Nc3c(Cl)ccc(Cl)c32)cc1 (configuration not stated) | 12.6 µM | > 100 | 0.954 | 5.3 | 5.24 µM | > 54 µM | 0.885 | 86.4 µM | 1.66 | > 24.6 | 2.72 µM | > 100 | 0.225 µM | 0.649 µM | 3.18 | > 78.5 µM | 0.715 µM | 19.6 | 0.413 µM | 56.1 |
| O=c1ccc2nc(-c3ccccc3)nn(-c3ccccc3)c-2c1 | 0.47 µM | 1.44 | 0.589 | 1.8 | 5.13 µM | 12.3 µM | 0.775 | 2.43 µM | 2.65 | 8.47 | 2.08 µM | 4.27 | 1.85 µM | 4.17 µM | 0.546 | 1.97 µM | 8.11 µM | 48.4 | 0.309 µM | 1.52 |
| CCN1CCC(C(=O)Nc2n[nH]c3nnc(-c4cccc(F)c4F)cc23)CC1 | 9.68 µM | > 25 | 4.61 | 9.17 | 16 µM | > 25 µM | > 25 | > 25 µM | 3.68 | > 23.1 | 5.59 µM | > 25 | 10.5 µM | > 25 µM | 12.1 | > 25 µM | > 25 µM | > 25 | 9.61 µM | > 25 |
| CC(C)(O)Cn1c(=O)c(Oc2ccc(F)cc2F)cc2cnc(NC3CCOCC3)nc21 | > 25 µM | > 25 | > 25 | > 25 | > 25 µM | > 25 µM | > 25 | > 25 µM | > 25 | > 25 | > 25 µM | > 25 | > 25 µM | > 25 µM | > 25 | > 25 µM | > 25 µM | > 25 | > 25 µM | > 25 |
| COc1ccc(CCNc2nc3ccccc3c3[nH]c4ccccc4c23)cc1OC | 3.91 µM | 17.1 | 1.57 | 3.46 | 1.6 µM | 3.1 µM | 2.86 | 10.4 µM | 2.54 | 6.17 | 2.28 µM | 5.38 | 1.72 µM | 3.37 µM | 3.23 | 12.3 µM | 4.73 µM | 26 | 2.32 µM | 7.93 |
| Cc1cc(O)c2c(c1)C[C@@H](O)C1=C2C(=O)c2c(O)ccc(OC3CC(O)C(OC4CC(OC5CCC(OC6CC(O)C(OC7CC(OC8CCC(O)C(C)O8)C(O)C(C)O7)C(C)O6)C(C)O5)C(O)C(C)O4)C(C)O3)c2C1=O (some centres not stated) | 1.52 µM and 0.726 µM |  | 0.539 |  | 1.76 µM and 1.45 µM |  | 0.231 | 0.148 µM and 0.488 µM | 1.59 |  | 0.295 µM and 0.23 µM |  | 0.198 µM and 0.204 µM | 0.182 µM and 0.344 µM and 0.376 µM | 0.0541 | 0.216 µM and 0.343 µM | 3.01 µM and 1.8 µM |  | 0.033 µM and 0.0475 µM |  |
| COc1c(O)c2ccccc2c2cc(O)ccc12 |  | 14.5 |  | 31.5 |  | 32.7 µM |  | 20.1 µM |  | > 58.9 |  | 7.53 |  | 2.3 µM |  | 77.4 µM |  | 29.5 |  | > 68.4 |
| CCc1nc(N)nc(N)c1-c1ccc(Cl)cc1 |  | > 100 |  | > 100 |  | > 100 µM and 25.7 µM | 4.74 | > 100 µM | > 100 | > 100 | 2.82 µM | > 100 | 4.6 µM | > 100 µM | 25.6 | > 100 µM | 5.93 µM | > 100 | 18.7 µM | > 100 |
| CC/C=C/[C@@H]1C=C[C@@H]2CCC[C@H]2[C@@H]1CC[C@H](O)[C@H](C)N | 1.59 µM | 2.94 | 1.36 | 2.64 | 1.42 µM | 2.74 µM | 1.54 | 2.87 µM | 1.43 | 3.15 | 1.58 µM | 2.92 | 1.7 µM | 3.27 µM | 1.72 | 3.68 µM | 1.97 µM | 4.4 | 1.39 µM | 3 |
| Cc1cc(Cl)n2c(nc3ccccc32)c1C#N | 0.567 µM | 1.84 | 0.296 | 0.803 | 0.727 µM | 2.31 µM | 0.53 | 4.12 µM | 1.02 | 23.4 | 0.26 µM | 1.35 | 0.327 µM | 1.6 µM | 1.06 | 22.8 µM | 0.847 µM | 8.74 | 0.348 µM | 24.2 |
| COc1cc[c]([Hg][Cl])cc1 | 1.81 µM | 3.47 | 2.06 | 4 | 13.5 µM | 27.8 µM | 1.08 | 2.36 µM | 1.96 | 47.2 | 1.42 µM | 2.74 | 1.61 µM | 3.2 µM | 1.64 | 6.59 µM | 11.7 µM | > 100 | 0.245 µM | 4.13 |
| CC(=O)OCC1OC(n2cc(F)c(=O)[nH]c2=O)C(OC(C)=O)C1OC(C)=O (configuration not stated) |  | > 100 |  | > 83.2 |  | > 100 µM |  | > 100 µM |  | > 100 |  | > 63.9 |  | > 100 µM |  | > 77.7 µM |  | > 100 |  | > 78.5 |
| Cc1ncc(C(=O)Nc2ccc(CN3CCN(C)CC3)c(C(F)(F)F)c2)cc1C#Cc1c(N)ncc2ccc(C#N)cc12 | 0.293 µM | 3.35 | 0.059 | 8.05 | 4.96 µM | > 40.9 µM | 0.547 | 8.86 µM | 0.572 | 4.93 | 0.092 µM | 0.791 | 0.163 µM | 3.31 µM | 1.03 | 19.4 µM | 5.06 µM | 16.8 | 1.42 µM | 12.2 |
| CCc1cc(C(N)=O)ccc1-n1nc(C(C)C)c2c(-n3cnc(-c4cnn(C)c4)c3)ccnc21 | 1.62 µM | > 100 | 0.387 |  | 3.39 µM | > 100 µM | 2.9 | > 100 µM | 12 | > 100 | 0.913 µM | 5.56 | 0.719 µM | > 100 µM | 0.955 | > 100 µM | 32.8 µM | > 100 | 0.546 µM | > 100 |
| COc1ccc(C(=O)/C=C/c2ccc(Cl)cc2)cc1S(N)(=O)=O | 1.94 µM | 4.12 | 2.03 | 4.84 | 1.78 µM | 3.65 µM | 2.14 | 10.6 µM | 3.28 | 18.4 | 1.28 µM | 2.65 | 4.34 µM | 15.6 µM | 2.93 | 9.16 µM | 3.64 µM | 24 | 0.865 µM | 6.86 |
| Cn1cc(-c2ccc3cc(-c4ccc(CC(=O)Nc5cc(C(C)(C)C)nn5C)cc4)cnc3c2)cn1 | 0.11 µM | > 100 | 0.441 | > 100 | 0.443 µM | > 100 µM | 0.157 | > 100 µM | 0.187 | > 100 | 0.284 µM | > 100 | 0.309 µM | > 100 µM | 0.282 | > 100 µM | 0.355 µM | > 100 | 0.256 µM | > 100 |
| N#Cc1c(N)nn(C(=O)c2ccc(NC(=O)c3ccccn3)cc2)c1-c1ccc(Cl)cc1 | 3.48 µM | 15.5 |  |  | 3.68 µM | > 100 µM | 5.04 | > 100 µM | 2.89 | > 100 | 5.75 µM | > 100 | 4.81 µM | > 100 µM | 25.7 | > 100 µM | 4.09 µM | > 100 | 3.81 µM | > 100 |

Reference: PubChem BioAssay (NCI)
